Key:
[1] = test system: Influenza A virus; experiment: Anti-viral activity against Influenza A virus H7N1 pseudotype infected in human A549 cells assessed as inhibition of viral entry incubated for 48 hrs by Neolite Reporter Gene Assay; assay type: functional, organism-based; details: H7N1, A549, 48 h
[2] = Half life in CD1 mouse at 25 mg/kg, ip; assay type: ADME, organism-based; details: in vivo
[3] = Apparent volume of distribution in CD1 mouse at 25 mg/kg, ip; assay type: ADME, organism-based; details: in vivo
[4] = AUC (infinity) in CD1 mouse at 25 mg/kg, ip; assay type: ADME, organism-based; details: in vivo
[5] = Metabolic stability in BALB/c mouse liver microsomes assessed as compound remaining at 2 to 10 uM measured after 60 mins in presence of NADPH by LC-MS/MS analysis; assay type: ADME, Microsome; details: dose 2-10 µM, read-out: Stability
[6] = Metabolic stability in human liver microsomes assessed as compound remaining at 2 to 10 uM measured after 60 mins in absence of NADPH by LC-MS/MS analysis; assay type: ADME, Microsome; details: dose 2-10 µM, read-out: Stability
[7] = Tmax in CD1 mouse at 25 mg/kg, ip; assay type: ADME, organism-based; details: in vivo
[8] = Metabolic stability in BALB/c mouse liver microsomes assessed as compound remaining at 2 to 10 uM measured after 60 mins in absence of NADPH by LC-MS/MS analysis; assay type: ADME, Microsome; details: dose 2-10 µM, read-out: Stability
[9] = test system: Influenza A virus; experiment: Anti-viral activity against wild-type Influenza A virus H7N1 pseudotype infected in human A549 cells assessed as inhibition of viral entry incubated for 48 hrs by Neolite Reporter Gene Assay; assay type: functional, organism-based; details: H7N1, A549, 48 h
[10] = Clearance in CD1 mouse at 25 mg/kg, ip; assay type: ADME, organism-based; details: in vivo
[11] = MRT (infinity) in CD1 mouse at 25 mg/kg, ip; assay type: ADME, organism-based; details: in vivo
[12] = Metabolic stability in mouse plasma at 2 uM measured after 60 mins by LC-MS/MS analysis; assay type: ADME, cell-free; details: 1 h
[13] = Metabolic stability in human plasma at 2 uM measured after 60 mins by LC-MS/MS analysis; assay type: ADME, cell-free; details: 1 h
[14] = Metabolic stability in human liver microsomes assessed as compound remaining at 2 to 10 uM measured after 60 mins in presence of NADPH by LC-MS/MS analysis; assay type: ADME, Microsome; details: dose 2-10 µM, read-out: Stability
[15] = Cmax in CD1 mouse at 25 mg/kg, ip; assay type: ADME, organism-based; details: in vivo
[16] = Cytotoxicity against human A549 cells incubated for 48 hrs by CellTiter-Glo Luminescent Cell Viability Assay; assay type: toxicity, cell-based

Structure (SMILES)	EC50 [1]	half-life [2]	Vz [3]	AUC(0-inf) [4]	remaining at 1 h, up to 10 µM [5]	remaining at 1 h, up to 10 µM [6]	Tmax [7]	remaining at 1 h, up to 10 µM [8]	EC50 [9]	CL/F [10]	MRT inf [11]	Stability [12]	Stability [13]	remaining at 1 h, up to 10 µM [14]	Cmax [15]	CC50 at 48 h [16]
Oc1ccc(-c2nc3ncccn3c2NC2CCCCC2)c(F)c1	90 nM	3.61 h	35.639 L/kg	3660 ng·h/mL	72.7%	115%	0.083 h	101%	110 nM	114 mL/min/kg	0.842 h	Stable	Stable	68.9%	14500 ng/mL	> 100000 nM
Fc1cc(OCc2ccc(C(F)(F)F)cc2)ccc1-c1nc2ncccn2c1NC1CCCCC1	470 nM	3.82 h	4.226 L/kg	33900 ng·h/mL	60.5%	105%	2.67 h	104%		12.8 mL/min/kg	6.25 h	Stable	Stable	36%	2930 ng/mL	> 100000 nM

Reference: ChEMBL document CHEMBL6134909 (Eur J Med Chem, 2025)
